Results on 12 compounds are retold here after PubChem BioAssay (NCI).

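These data come from cells grown in 96-well plates and exposed to compound for 48 hours at five concentrations. At the TGI there is no net growth.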

What all share (test): NCI-60 cell line screen, 48 h
The test system of test [1] is CCRF-CEM leukemia.
The test system of test [2] is SNB-19 CNS.
Test [3] has as its system EKVX NSCLC.
Test [4] relates to SK-MEL-28 melanoma.
Test [5] has as its system SK-OV-3 ovarian.
Test [6] concerns T-47D breast.
For test [7], the system named is HCC-2998 colon.
In test [8] the test system is UACC-62 melanoma.
Test [9] has as its system HOP-62 NSCLC.
Test [10] relates to OVCAR-8 ovarian.
In test [11] the test system is UACC-257 melanoma.

On to `N#Cc1c(NC(=S)NCc2ccccc2)sc2c1CCN(N1CCc3c(sc(NC(=S)NCc4ccccc4)c3C#N)C1)C2`, for which the TGI in test [1], in test [2], in test [3], in test [4], in test [5] and in test [6] was > 100 µM in each case. Moreover, the TGI in test [7], in test [8], in [9], in test [10] and in test [11] was > 100 µM in each case.

In the case of `CN1C[C@@H]2CCCN2P1Oc1cccc2cccnc12` (some centres not stated), the TGI is 19.3 µM in [1]; > 100 µM in [2]; 90.6 µM in [3]; > 100 µM in test [4]; > 100 µM in test [5]; > 100 µM in test [6]. The TGI in test [7], in test [8], in test [9], in test [10] and in test [11] was > 100 µM throughout.

For the compound `Nc1ncc(Cc2nc3ccccc3s2)s1`, the TGI in test [1], in test [2], in test [3], in [4], in test [5] and in [6] was > 100 µM in each case. Moreover, the TGI in test [7], in test [8], in test [9], in test [10] and in test [11] was > 100 µM in each case.

On to `C[N+]1(C)CN(c2ccccc2)C2(CCN(CCCC(=O)c3cccs3)CC2)C1=O`, for which the TGI in test [1], in test [2], in [3], in [4], in [5] and in test [6] was > 100 µM throughout. The TGI in test [7], in test [8], in test [9], in test [10] and in test [11] was > 100 µM in each case.

`NC(=O)N(O)c1cccc(Br)c1`: the TGI in test [1], in test [2], in test [3], in [4], in [5] and in [6] was > 100 µM in each case. The TGI in test [7], in [8], in test [9], in test [10] and in test [11] was > 100 µM each time.

Consider `CC(=O)c1cn(-c2ccc(Cl)cc2)c(=O)c2c(N)n[nH]c12`, for which the TGI in [1], in [2], in test [3], in test [4], in test [5] and in test [6] was > 100 µM throughout. Also, the TGI in test [7], in test [8], in [9], in test [10] and in test [11] was > 100 µM throughout.

Turning to `Nc1c(C(=O)c2ccccc2)[nH]c(NCc2ccccc2)c1C(=S)Nc1ccccc1`, the TGI in test [1], in test [2], in test [3], in [4], in [5] and in test [6] was > 100 µM throughout. In addition, the TGI in [7], in [8], in test [9], in [10] and in test [11] was > 100 µM each time.

Consider `C[C@@H]1OC(=O)C[C@H]2CC(=O)N(CCc3cn(S(=O)(=O)C(F)(F)F)c4ccccc34)C[C@@H]21`, for which the TGI in test [1], in test [2], in test [3], in [4], in test [5] and in test [6] was > 100 µM in each case. Besides, the TGI in test [7], in [8], in test [9], in test [10] and in test [11] was > 100 µM in each case.

With `CCC(=O)NCCc1c[nH]c2ccc(OC)cc12`, the TGI in [1], in [2], in [3], in test [4], in test [5] and in [6] was > 100 µM throughout. In addition, the TGI in test [7], in [8], in test [9], in test [10] and in test [11] was > 100 µM in each case.

For the compound `CC(Cc1ccc(O)c(O)c1)C(C)Cc1ccc(O)c(O)c1` (configuration not stated), the TGI in test [1] is 19.3 µM; in test [2], 50.9 µM; in [3] it was 58.8 µM; in test [4], 31.1 µM; in test [5] it was 84 µM; in test [6], 41.2 µM. For the same compound, the TGI in [7] was found to be 38.9 µM; in test [8] it was 32.8 µM; in test [9] it was 34.1 µM; in test [10], 33.6 µM; in test [11], 37.9 µM.

In the case of `CC(C)(C)OC(=O)N1CCC23CCCC2C(=O)CC=C13` (configuration not stated), the TGI in test [1], in test [2], in [3], in test [4], in test [5] and in [6] was > 100 µM throughout. In addition, the TGI in test [7] is > 100 µM; in [8], > 100 µM; in test [9], > 100 µM; in [10], > 100 µM; in test [11], 71.9 µM.

For `CCOC(=O)c1nc2cc(C(F)(F)F)ccc2nc1Nc1ccc(Cl)c(Cl)c1`, the TGI in test [1], in test [2], in [3], in test [4], in test [5] and in [6] was > 100 µM each time. Further, the TGI in test [7], in test [8], in [9], in test [10] and in test [11] was > 100 µM throughout.
